Laboratory results as given in the supplement of paper PMC10307832.

Assays:
Experiment in all cases: relative viability (nuclei count vs DMSO), 5 days (fraction); higher = more cells survive
[1] = compound: C1=CC=C2C(=C1)N=C(S2)C(C#N)C3=NC(=NC=C3)NCCC4=CN=CC=C4 + Cc1nc(Nc2ncc(C(=O)Nc3c(C)cccc3Cl)s2)cc(N2CCN(CCO)CC2)n1 [Dasatinib] (partner 0.075 µM)
Procedure, shortened: (§1)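 A single step with final 0.05% Triton X-100, 1% formaldehyde and 1 ug/ml Hoechst fixed the cells and stained nuclei 5 days after treatment. Lung cancer cell lines in 1536-well plates had been treated by pin tool the day after seeding with one drug alone or a fixed anchor-drug dose plus five library-drug doses (not always all listed) in √10 steps, and nuclei were counted on 4× images. Relative viability is the ratio of nuclei in treated wells to nuclei in vehicle wells, taken as the median of duplicate plates.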

[2] = compound: COc1cc(N2CCC(N3CCN(C)CC3)CC2)ccc1Nc1ncc(Cl)c(Nc2ccccc2S(=O)(=O)C(C)C)n1 [NVP-TAE684] + COc1cccc2cc(-c3nc([C@H]4CC[C@H](C(=O)O)CC4)n4ncnc(N)c34)[nH]c12 [OSI-027] (partner 0.5 µM)
Procedure, shortened: as §1

[3] = compound: COc1cc(N2CCC(N3CCN(C)CC3)CC2)ccc1Nc1ncc(Cl)c(Nc2ccccc2S(=O)(=O)C(C)C)n1 [NVP-TAE684] + CS(=O)(=O)N1CCN(Cc2cc3nc(-c4cccc5[nH]ncc45)nc(N4CCOCC4)c3s2)CC1 [Pictilisib] (partner 1 µM)
Procedure, shortened: as §1

[4] = compound: C1=CC=C2C(=C1)N=C(S2)C(C#N)C3=NC(=NC=C3)NCCC4=CN=CC=C4 + NC(=O)Nc1cc(-c2cccc(F)c2)sc1C(=O)N[C@H]1CCCNC1 [AZD7762] (partner 0.2 µM)
Procedure, shortened: as §1

[5] = compound: COc1cc(N2CCC(N3CCN(C)CC3)CC2)ccc1Nc1ncc(Cl)c(Nc2ccccc2S(=O)(=O)C(C)C)n1 [NVP-TAE684] + Nc1nc2[nH]cc(CCc3ccc(C(=O)N[C@@H](CCC(=O)O)C(=O)O)cc3)c2c(=O)[nH]1 [Pemetrexed] (partner 0.2 µM)
Procedure, shortened: as §1

Row | Cell Line | relative viability ([1]; first compound 0.005 µM) | relative viability ([1]; first compound 0.01581 µM) | relative viability ([1]; first compound 0.05 µM) | relative viability ([1]; first compound 0.1581 µM) | relative viability ([1]; first compound 0.5 µM) | relative viability ([2]; first compound 0.2 µM) | relative viability ([2]; first compound 0.6325 µM) | relative viability ([2]; first compound 2 µM) | relative viability ([3]; first compound 0.2 µM) | relative viability ([3]; first compound 0.6325 µM) | relative viability ([3]; first compound 2 µM) | relative viability ([4]; first compound 0.005 µM) | relative viability ([4]; first compound 0.01581 µM) | relative viability ([4]; first compound 0.05 µM) | relative viability ([4]; first compound 0.1581 µM) | relative viability ([4]; first compound 0.5 µM) | relative viability ([5]; first compound 0.2 µM) | relative viability ([5]; first compound 0.6325 µM) | relative viability ([5]; first compound 2 µM)
1 | NCI-H2405 | 0.214 | 0.187 | 0.168 | 0.234 | 0.219 | 0.564 | 0.613 | 0.261 | 0.522 | 0.348 | 0.284 | 0.705 | 0.66 | 0.832 | 0.829 | 0.48 | 1.17 | 0.901 | 0.567
2 | NCI-H3122 | 0.826 | 0.824 | 0.873 | 1.03 | 0.686 | 0.173 | 0.127 | 0.154 | 0.211 | 0.181 | 0.202 | 0.975 | 1.16 | 0.96 | 1 | 1 | 0.159 | 0.117 | 0.114
3 | PC-3 [JPC-3] | 0.877 | 1.07 | 0.962 | 1.08 | 0.73 | 0.686 | 0.759 | – | 0.697 | 0.684 | 0.65 | 0.702 | – | 0.822 | 0.997 | 0.654 | 1.16 | 1.08 | 0.903
4 | PC-14 | 0.174 | 0.228 | 0.211 | 0.32 | 0.249 | 0.699 | 0.644 | 0.185 | 0.726 | 0.589 | 0.157 | 0.334 | 0.238 | 0.396 | 0.514 | 0.302 | 0.145 | 0.134 | 0.124
5 | RERF-LC-KJ | 0.796 | 0.863 | 0.756 | 0.952 | 0.527 | 0.514 | 0.448 | 0.306 | 0.613 | 0.484 | 0.494 | 0.984 | 0.977 | 1.02 | 1.23 | 0.964 | 0.484 | 0.489 | 0.431
